According to ChEMBL document CHEMBL1155282, “Design, synthesis and preliminary biological evaluation of N-hydroxy-4-(3-phenylpropanamido)benzamide (HPPB) derivatives as novel histone deacetylase inhibitors” (Eur J Med Chem, 2009):
pIC50: −log10 of the molar value.

Columns and labels:
[1] = molecular target: Histone deacetylase (HDAC1 and HDAC2) (Homo sapiens, UniProt Q13547+Q92769); assay: Inhibition of HDAC1/HDAC2 from human Hela nuclear extracts using [3H]acetylated histone peptide by colorimetry; assay type: protein assay
[2] = tested on: HCT-116; assay: Antiproliferative activity against human HCT116 cells after 2 days by MTT assay; assay type: functional, cell-based; conditions: HCT-116, 48 h
[3] = tested on: A549; assay: Antiproliferative activity against human A549 cells after 2 days by MTT assay; assay type: functional, cell-based; conditions: A549, 48 h
[4] = tested on: HCT-116; assay: Cell cycle arrest in human HCT116 cells assessed as accumulation at G1 phase at 1 umol/L by flow cytometry; assay type: functional
[5] = tested on: HCT-116; assay: Cell cycle arrest in human HCT116 cells assessed as accumulation at S phase at 1 umol/L by flow cytometry; assay type: functional
[6] = tested on: HCT-116; assay: Cell cycle arrest in human HCT116 cells assessed as accumulation at G2 phase at 1 umol/L by flow cytometry; assay type: functional

| Compound | IC50 [1] | also measured |
| --- | --- | --- |
| COc1cc(CCC(=O)Nc2ccc(C(=O)NO)cc2)ccc1OCc1cccc(Cl)c1 | 1.6 µM |  |
| COc1cc(CCC(=O)Nc2ccc(C(=O)NO)cc2)ccc1OCc1ccccn1 | 3.9 µM |  |
| COc1cc(CCC(=O)Nc2ccc(C(=O)NO)cc2)ccc1OCc1cccs1 | 0.3 µM | pIC50 [2]: 7.52; pIC50 [3]: 7.10; Activity [4]: 28.51%; Activity [5]: 24.33%; Activity [6]: 47.16% |
| O=C(CCc1ccc2c(c1)OCO2)Nc1ccc(C(=O)NO)cc1 | 0.4 µM | pIC50 [2]: 7.22; pIC50 [3]: 6.30; Activity [4]: 17.09%; Activity [5]: 34.11%; Activity [6]: 48.8% |
| COc1ccc(CCC(=O)Nc2ccc(C(=O)NO)cc2)cc1OC | 3.3 µM |  |
| COc1cc(CCC(=O)Nc2ccc(C(=O)NO)cc2)ccc1OCc1ccccc1Br | 0.6 µM | pIC50 [2]: 7.00; pIC50 [3]: 6.22 |
| COc1cc(CCC(=O)Nc2ccc(C(=O)NO)cc2)ccc1OCc1ccccc1 | 0.7 µM | pIC50 [2]: 6.92; pIC50 [3]: 6.22 |
| CCCOc1ccc(CCC(=O)Nc2ccc(C(=O)NO)cc2)cc1OC | 1.7 µM |  |
| CCC(C)Oc1ccc(CCC(=O)Nc2ccc(C(=O)NO)cc2)cc1OC (centres undefined) | 2.2 µM |  |
| COc1cc(CCC(=O)Nc2ccc(C(=O)NO)cc2)ccc1OCc1ccc(Cl)cc1 | 1.4 µM |  |

Now from value to compound, other results behind:

| IC50 [1] | Compound | also measured |
| --- | --- | --- |
| 2.9 µM | COc1cc(CCC(=O)Nc2ccc(C(=O)NO)cc2)ccc1OCCC(C)C |  |
| 0.8 µM | COc1cc(CCC(=O)Nc2ccc(C(=O)NO)cc2)ccc1OCc1ccc(Br)cc1 |  |
| 1.2 µM | COc1cc(CCC(=O)Nc2ccc(C(=O)NO)cc2)ccc1OCc1ccccc1Cl |  |
| 2.9 µM | CCOc1ccc(CCC(=O)Nc2ccc(C(=O)NO)cc2)cc1OC |  |
| 1.5 µM | COc1cc(CCC(=O)Nc2ccc(C(=O)NO)cc2)ccc1OCc1ccc(C)cc1 |  |
| 2.6 µM | COc1cc(CCC(=O)Nc2ccc(C(=O)NO)cc2)ccc1OCc1cccc(C)c1 |  |
| 0.9 µM | COc1cc(CCC(=O)Nc2ccc(C(=O)NO)cc2)ccc1OCc1cccc(Br)c1 |  |
| 1.6 µM | CCCCOc1ccc(CCC(=O)Nc2ccc(C(=O)NO)cc2)cc1OC |  |
| 4 µM | COc1cc(CCC(=O)Nc2ccc(C(=O)NO)cc2)ccc1OC1CCCC1 |  |
| 1.8 µM | COc1cc(CCC(=O)Nc2ccc(C(=O)NO)cc2)ccc1OCc1ccccc1C |  |
